Laboratory results taken from article PMC5947527 (Chemical Science, 2015).
“Also recorded” adds a separate entry of the source. Non-standard residues stand in square brackets, D forms with d. Residues, ends and D or L forms follow the SMILES beside them. *: point of attachment. NBD = O=[N+]([O-])c1ccc(*)c2nonc12; Nle = CCCC[C@H](N)C(=O)O; Ahx = NCCCCCC(=O)O

Columns and labels:
[1] = test system: isolated human neutrophils; assay: Co-culture of bacteria and isolated human neutrophils, confocal specificity; assay type: cell-based
From the text: Neutrophil Isolation: Neutrophils for in vitro experiments were isolated from peripheral venous blood of healthy human volunteers (Ethical approval was obtained from the Lothian Research Ethics Committee). Blood was anticoagulated with sodium citrate (0.38% final concentration) and polymorphonuclear leukocytes were isolated via dextran sedimentation followed by centrifugation through discontinuous plasma-Percoll gradients, as previously described. S4 […]
Confocal Analysis and Fluorescence Quantification: 8-Well Lab-Tek II Confocal Chambers (VWR, PA, USA) were coated in fibronectin (for neutrophil experiments) or poly-d-lysine (for bacteria) at 37 °C for 20 minutes, then washed in PBS prior to bacterial innoculation. For co-culture assays, neutrophils were seeded on fibronectin coated wells at 1 x 10^5 neutrophils per well for 20 minutes and non-adherent neutrophils aspirated. Bacteria were added to each chamber to a final concentration of 0.5 OD595 nm with the desired final concentration of Smartprobe. A laser-scanning confocal imaging system (LSM510; Carl Zeiss, Jena, Germany), incorporating an upright Axioskop FS2 microscope (63× objective) was used for image acquisition and processing. Exposure to 488 nm light was limited to 5% of the maximum laser power in order to minimize toxicity. ‘Green’ fluorescence (for FAM and NBD) was excited with a dedicated 488 nm line and emitted light detected with meta detector (500-530 nM).
Syto nuclear and dyes were excited with a dedicated 543 nm line, and emitted light detected with meta detector (570-610 nM). Fields of view were chosen based on the counterstain and at least three fields of view were recorded for each condition. For affinity assays, following initial imaging, the fluid was aspirated and two gentle washes with PBS were performed. The chamber was re-imaged on confocal.
Analysis was with ImageJ (version 1.46r, National Institutes of Health, USA); the Syto channel was automatically thresholded (MaxEntropy, with a set threshold 0-47) and an ROI generated from this. The

[2] = test system: bacteria in ex vivo human lung tissue; assay: Fibered confocal fluorescence microscopy (FCFM) of labelled bacteria on ex vivo human lung tissue; details: 10 μM, bacteria pre-labelled, 488 nm FCFM, n = 3
Description: Since NBD is also excited at 488 nm, the utility and detection of the Smartprobes with FCFM was next evaluated. […] These were then delivered onto ex vivo human lung tissue fragments.
Fig. 10 UBI-10 can be used to image bacteria in ex vivo human lung tissue by fibered confocal fluorescence microscopy (FCFM). FCFM imaging of bacteria in suspension (upper panels) or when co-incubated with ex vivo human lung tissue (lower panels). […] All compounds at 10 μM, n = 3. […]
mean fluorescence intensity on the probe channel within this ROI was quantified. Data presented represents the mean of three experiments, from each of which three separate fields of view were assessed. All experiments were performed at least three times unless otherwise stated and results expressed as mean ± SEM. Data was analysed by unpaired t-test and significance was determined as p<0.05 (GraphPad Prism version 5.01 for Windows, GraphPad Software, San Diego California USA).
Ex vivo Human Lung and FCFM Procedure: Human lung samples were obtained from patients undergoing surgical resection for lung carcinoma. All images were obtained on sections of normal lung away from the cancerous growth. Informed consent was obtained and the study was approved by the Regional Ethics Committee. Samples were taken fresh from the operating theatre, dissected into 4mm sections and placed in wells of 96 well plate. […]

SMILES | labelling of neutrophils vs bacteria ([1]; bacteria with isolated human neutrophils, confocal) | detection of labelled bacteria by FCFM on ex vivo human lung tissue [2] | labelling of neutrophils at 10 μM ([1]; co-culture of isolated human neutrophils and methicillin sensitive S. aureus, 10 μM) | labelling of neutrophils at 50 μM ([1]; co-culture of isolated human neutrophils and methicillin sensitive S. aureus, 50 μM)
CCCC[C@H](NC(=O)[C@H](CCCNC(=N)N)NC(=O)[C@H](CCCNC(=N)N)NC(=O)[C@H](CCCCN)NC(=O)[C@H](C)NC(=O)[C@H](CCCNC(=N)N)NC(=O)CNC(=O)[C@@H](NC(=O)CCCCCNc1ccc([N+](=O)[O-])c2nonc12)[C@@H](C)O)C(=O)N[C@@H](CCC(N)=O)C(=O)N[C@@H](Cc1ccc(O)cc1)C(=O)N[C@@H](CC(N)=O)C(=O)N[C@@H](CCCNC(=N)N)C(=O)N[C@@H](CCCNC(=N)N)C(N)=O [UBI-3] ({NBD-Ahx}-TGRAKRR[Nle]QYNRR-NH2) | labels bacteria but not isolated human neutrophils | immediately lost their fluorescent signal; also recorded: can image bacteria in suspension but not in the presence of ex vivo human lung | – | –
CCCC[C@@H]1NC(=O)[C@H](CCCNC(=N)N)NC(=O)[C@H](CCCNC(=N)N)NC(=O)[C@H](CCCCN)NC(=O)[C@H](C)NC(=O)[C@H](CCCNC(=N)N)NC(=O)CNC(=O)[C@H]([C@@H](C)O)NC(=O)[C@@H](NC(=O)CCCCCNc2ccc([N+](=O)[O-])c3nonc23)CCCCNC(=O)CNC(=O)[C@H](CCCNC(=N)N)NC(=O)[C@H](CCCNC(=N)N)NC(=O)[C@H](CC(N)=O)NC(=O)[C@H](Cc2ccc(O)cc2)NC(=O)[C@H](CCC(N)=O)NC1=O [UBI-10] | – | readily identified above elastin autofluorescence; also recorded: can image bacteria by FCFM in the presence of ex vivo human lung | retained bacterial specificity over neutrophils; also recorded: no labelling of neutrophils | some neutrophil labelling was observed; also recorded: occasional neutrophil labelling was observed
